This note sets out measurements from US12240844B2 (Voronoi, Inc., priority 2019, dated 2025).

What all share (type): biochemical
Assay [1] concerns the target T1, human GST-DYRK1A (full length) (Homo sapiens, UniProt Q13627).
T1 construct: purified human GST-DYRK1A (full length, Thermo scientifics) enzyme; GST; purchased Thermo scientifics
Nature of the assay: GST-DYRK1A enzyme inhibition, ADP-Glo kinase assay. As to conditions: read-out: DYRK1 IC50. The gist of the method:
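Full-length human GST-DYRK1A (10 ng) incubated with 10 uM ATP and specific substrate for 1 h at 25° C in 40 mM Tris-HCl pH 7.4, 20 mM MgCl2, 0.5 mg/mL BSA, 50 uM DTT. ADP formation read by ADP-Glo luminescence; IC50 (nM) versus solvent control, triplicate.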

A further assay concerns the target T2, human GST-CLK1 (129-end) (Homo sapiens, UniProt P49759).
T2 construct: purified human GST-CLK1 (129-end, Signalchem) enzyme; GST; purchased Signalchem
The assay can be described thus: GST-CLK1 enzyme inhibition, ADP-Glo kinase assay. As to conditions: ATP 10 uM. The method in brief: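 GST-CLK1 (129-end, 3 ng) reacted with 10 uM ATP and substrate in 40 mM Tris-HCl pH 7.4, 20 mM MgCl2, 0.5 mg/mL BSA, 50 uM DTT, 1 h at 25° C. ADP-Glo luminescence normalised to solvent control; IC50 from triplicate data.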

The next assay deals with LRRK2 (G2019S) (Homo sapiens, UniProt Q5S007, G2019S). The assay can be described thus: LRRK2 G2019S enzyme inhibition, ADP-Glo kinase assay. The arrangement: purchased SignalChem L10-12GG. The protocol: In order to evaluate the inhibitory activity of the compounds according to the present invention on LRRK2, LRRK2 (G2019S), DYRK1, CLK1 and TTK kinases, the following experiment was performed.
Example compounds were reacted with the purified human LRRK2 G2019S (L10-12GG, SignalChem) enzyme to evaluate the enzyme inhibitory ability as follows. The reaction buffer was used as the composition of 40 mM Tris-HCl pH7.4, 20 mM MgCl2, 0.5 mg/ml BSA and 50 μM DTT, and the reaction of all test materials was performed on the reaction buffer. The compound was diluted with 10 mM DMSO stock in 12 steps by a serial dilution method, and the enzyme activity was measured at the final compound concentrations of 50, 10, 2, 0.4, 0.08, 0.016, 0.0032, 0.00064, 0.000128, 0.0000256, 0.00000512 and 0.000001024 μM. In the test, the human LRRK2 G2019S (16 ng) enzyme was reacted with the purified ATP (25 μM) and an enzyme substrate (0.2 μg) at 25° C. for 2 hours, and then the enzyme activity was identified using the in vitro ADP-Glo™ kinase assay (promega). The enzyme activity reaction liquid, an ADP-Glo reaction liquid and an enzyme potency detection solution were reacted in a ratio of 2:2:1, and the degree of inhibition of enzyme activity was measured by Luminescence. The degree of inhibition of enzyme activity according to the treatment concentrations of the respective compounds was calculated based on the fluorescence of the enzyme activity of a solvent control group that was not treated with the compound, where the concentration of each compound to inhibit enzyme activity inhibition by 50% was determined as an IC50 (nM) value and obtained using Prism (Version 5.01, GraphPad) software.
In the table below, the following designations were used for the evaluation of enzyme inhibitory ability.

Each structure is given as a SMILES string.

T2 sequence (P49759 129-484 limits assumed): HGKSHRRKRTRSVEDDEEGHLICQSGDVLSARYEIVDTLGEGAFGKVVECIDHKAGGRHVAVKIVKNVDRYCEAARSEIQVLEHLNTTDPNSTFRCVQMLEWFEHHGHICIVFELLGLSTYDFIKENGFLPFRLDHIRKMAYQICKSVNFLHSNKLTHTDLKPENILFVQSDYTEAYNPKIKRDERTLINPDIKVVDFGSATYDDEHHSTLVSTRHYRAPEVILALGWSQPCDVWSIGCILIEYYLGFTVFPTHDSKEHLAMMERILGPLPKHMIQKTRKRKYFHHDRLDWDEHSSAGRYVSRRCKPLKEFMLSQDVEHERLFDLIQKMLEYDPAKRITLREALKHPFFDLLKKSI
LRRK2 (G2019S), sequence (Q5S007 970-2527 G2019S limits assumed): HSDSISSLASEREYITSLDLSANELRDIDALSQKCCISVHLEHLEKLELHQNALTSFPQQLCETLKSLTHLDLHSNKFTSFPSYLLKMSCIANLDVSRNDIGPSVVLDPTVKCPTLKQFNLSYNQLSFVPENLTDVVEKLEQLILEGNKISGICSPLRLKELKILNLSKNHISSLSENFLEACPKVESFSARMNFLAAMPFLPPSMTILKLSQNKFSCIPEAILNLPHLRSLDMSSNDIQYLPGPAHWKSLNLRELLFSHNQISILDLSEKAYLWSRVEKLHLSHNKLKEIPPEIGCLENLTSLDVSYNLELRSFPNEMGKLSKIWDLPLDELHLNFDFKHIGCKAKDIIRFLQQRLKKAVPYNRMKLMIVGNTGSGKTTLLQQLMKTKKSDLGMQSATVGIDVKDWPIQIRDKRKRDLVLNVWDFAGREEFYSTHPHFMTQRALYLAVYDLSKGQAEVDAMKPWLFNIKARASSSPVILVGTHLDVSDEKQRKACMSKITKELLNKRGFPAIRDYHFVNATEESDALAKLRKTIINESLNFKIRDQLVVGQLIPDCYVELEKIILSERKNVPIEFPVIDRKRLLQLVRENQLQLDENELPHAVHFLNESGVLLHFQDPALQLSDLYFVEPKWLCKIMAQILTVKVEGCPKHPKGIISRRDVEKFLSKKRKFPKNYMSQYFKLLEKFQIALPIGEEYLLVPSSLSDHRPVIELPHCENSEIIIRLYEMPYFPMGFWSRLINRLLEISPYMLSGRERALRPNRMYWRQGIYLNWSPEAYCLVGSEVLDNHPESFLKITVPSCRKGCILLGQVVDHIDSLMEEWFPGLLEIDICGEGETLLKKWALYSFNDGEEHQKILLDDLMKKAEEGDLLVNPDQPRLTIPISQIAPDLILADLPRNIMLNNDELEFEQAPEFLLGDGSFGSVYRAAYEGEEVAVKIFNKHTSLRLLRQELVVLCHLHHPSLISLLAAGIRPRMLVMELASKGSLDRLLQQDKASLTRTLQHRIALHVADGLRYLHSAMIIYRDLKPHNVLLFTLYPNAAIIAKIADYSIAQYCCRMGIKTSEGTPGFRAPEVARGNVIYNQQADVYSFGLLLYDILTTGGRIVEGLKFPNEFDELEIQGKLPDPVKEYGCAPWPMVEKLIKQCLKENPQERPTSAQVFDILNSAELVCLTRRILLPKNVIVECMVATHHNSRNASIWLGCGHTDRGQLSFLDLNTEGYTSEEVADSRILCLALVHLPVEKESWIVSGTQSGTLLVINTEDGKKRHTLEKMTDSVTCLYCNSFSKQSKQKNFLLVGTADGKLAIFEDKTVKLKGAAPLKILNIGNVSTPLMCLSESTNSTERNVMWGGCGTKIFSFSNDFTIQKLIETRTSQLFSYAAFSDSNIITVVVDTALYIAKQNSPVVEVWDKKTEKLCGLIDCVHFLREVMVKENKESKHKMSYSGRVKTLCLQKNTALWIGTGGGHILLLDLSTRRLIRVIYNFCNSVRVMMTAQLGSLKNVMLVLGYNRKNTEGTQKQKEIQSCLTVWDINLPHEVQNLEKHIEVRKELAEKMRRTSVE

With `CC(C)Nc1cc(Nc2ccc(C(=O)N3CCOCC3)c3c2OCCO3)nc2[nH]cc(Cl)c12` [Example 59, (8-((3-chloro-4-(isopropylamino)-1H-pyrrolo[2,3-b]pyridin-6-yl)amino)-2,3-dihydrobenzo [b] [1,4]dioxin-5-yl)(morpholino) methanone], the IC50 (in assay [1]; against human GST-CLK1 (129-end); against LRRK2 (G2019S)) was 301 to 1000 nM in each case.

With `O=C(c1ccc(Nc2cc(NC3CC3)c3c(Cl)c[nH]c3n2)c2c1OCCO2)N1CCOCC1` [Example 60, (8-((3-chloro-4-(cyclopropylamino)-1H-pyrrolo[2,3-b]pyridin-6-yl)amino)-2,3-dihydrobenzo [b] [1,4]dioxin-5-yl)(morpholino) methanone], the figures for the IC50 (in assay [1]; against human GST-CLK1 (129-end); against LRRK2 (G2019S)) were 301 to 1000 nM, 301 to 1000 nM and less than 100 nM, respectively.

Turning to `CS(=O)(=O)CCNc1cc(Nc2ccc(C(=O)N3CCOCC3)c3c2OCCO3)nc2[nH]cc(Cl)c12` [Example 63, (8-((3-chloro-4-((2-(methylsulfonyl)ethyl)amino)-1H-pyrrolo[2,3-b]pyridin-6-yl)amino)-2,3-dihydrobenzo[b] [1,4]dioxin-5-yl)(morpholino) methanone], the figures for the 50% inhibitory concentration (IC50) (in assay [1]; at human GST-CLK1 (129-end); at LRRK2 (G2019S)) were 301 to 1000 nM, 301 to 1000 nM and less than 100 nM, respectively.

`CCCNc1cc(Nc2ccc(S(=O)(=O)N3CCOCC3)cc2OC)nc2[nH]cc(Cl)c12` [Example 66, 3-chloro-N^6-(2-methoxy-4-(morpholinosulfonyl)phenyl)-N^4-propyl-1H-pyrrolo[2,3-b]pyridine-4,6-diamine]: the half-maximal inhibitory concentration (IC50) (in assay [1]; against human GST-CLK1 (129-end); at LRRK2 (G2019S)) was 301 to 1000 nM in each case.

As to `COc1cc(S(=O)(=O)N2CCOCC2)ccc1Nc1cc(NC(C)C)c2c(Cl)c[nH]c2n1` [Example 67, 3-chloro-N^4-isopropyl-N^6-(2-methoxy-4-(morpholinosulfonyl)phenyl)-1H-pyrrolo[2,3-b]pyridine-4,6-diamine], the IC50 (in assay [1]; against human GST-CLK1 (129-end); against LRRK2 (G2019S)) was 301 to 1000 nM in each case.

As for `COc1cc(S(=O)(=O)N2CCOCC2)ccc1Nc1cc(NC2CC2)c2c(Cl)c[nH]c2n1` [Example 68, 3-chloro-N^4-cyclopropyl-N^6-(2-methoxy-4-(morpholinosulfonyl)phenyl)-1H-pyrrolo[2,3-b]pyridine-4,6-diamine], the 50% inhibitory concentration (IC50) (in assay [1]; against human GST-CLK1 (129-end); against LRRK2 (G2019S)) was 301 to 1000 nM throughout.

For the compound `COc1cc(S(=O)(=O)N2CCOCC2)ccc1Nc1cc(NCCS(C)(=O)=O)c2c(Cl)c[nH]c2n1` [Example 72, 3-chloro-N^6-(2-methoxy-4-(morpholinosulfonyl)phenyl)-N^4-(2-(methylsulfonyl)ethyl)-1H-pyrrolo[2,3-b]pyridine-4,6-diamine], the IC50 (in assay [1]; at human GST-CLK1 (129-end); against LRRK2 (G2019S)) was 301 to 1000 nM throughout.

Turning to `CNc1cc(Nc2ccc(S(=O)(=O)N3CCC(N4CCOCC4)CC3)cc2OC)nc2[nH]cc(Cl)c12` [Example 73, 3-chloro-N^6-(2-methoxy-4-((morpholinopiperidin-1-yl)sulfonyl)phenyl)-N^4-methyl-1H-pyrrolo[2,3-b]pyridine-4,6-diamine], the IC50 was 301 to 1000 nM in assay [1], 301 to 1000 nM at human GST-CLK1 (129-end) and less than 100 nM against LRRK2 (G2019S).

`CCNc1cc(Nc2ccc(S(=O)(=O)N3CCC(N4CCOCC4)CC3)cc2OC)nc2[nH]cc(Cl)c12` [Example 74, 3-chloro-N^4-ethyl-N^6-(2-methoxy-4-((morpholinopiperidin-1-yl)sulfonyl)phenyl)-1H-pyrrolo[2,3-b]pyridine-4,6-diamine]: the IC50 in assay [1] was in the range of 301 to 1000 nM; at human GST-CLK1 (129-end), 301 to 1000 nM; at LRRK2 (G2019S), 101 to 300 nM.

In the case of `COc1cc(S(=O)(=O)N2CCC(N3CCOCC3)CC2)ccc1Nc1cc(NC(C)C)c2c(Cl)c[nH]c2n1` [Example 75, 3-chloro-N^4-isopropyl-N^6-(2-methoxy-4-((morpholinopiperidin-1-yl)sulfonyl)phenyl)-1H-pyrrolo[2,3-b]pyridine-4,6-diamine], the results for the IC50 (in assay [1]; against human GST-CLK1 (129-end); at LRRK2 (G2019S)) were 301 to 1000 nM, 301 to 1000 nM and less than 100 nM, respectively.

As to `COc1cc(S(=O)(=O)N2CCC(N3CCOCC3)CC2)ccc1Nc1cc(NC2CC2)c2c(Cl)c[nH]c2n1` [Example 76, 3-chloro-N^4-cyclopropyl-N^6-(2-methoxy-4-((morpholinopiperidin-1-yl)sulfonyl)phenyl)-1H-pyrrolo[2,3-b]pyridine-4,6-diamine], the concentration for half-maximal inhibition (IC50) is 301 to 1000 nM in assay [1], 301 to 1000 nM on human GST-CLK1 (129-end) and less than 100 nM against LRRK2 (G2019S).

On to `CNc1cc(Nc2ccc(S(C)(=O)=O)cc2OC)nc2[nH]cc(Cl)c12` [Example 80, 3-chloro-N^6-(2-methoxy-4-(methylsulfonyl)phenyl)-N^4-methyl-1H-pyrrolo[2,3-b]pyridine-4,6-diamine], for which the figures for the IC50 (in assay [1]; against human GST-CLK1 (129-end); on LRRK2 (G2019S)) were 301 to 1000 nM, 301 to 1000 nM and less than 100 nM, respectively.

With `CCNc1cc(Nc2ccc(S(C)(=O)=O)cc2OC)nc2[nH]cc(Cl)c12` [Example 81, 3-chloro-N^4-ethyl-N^6-(2-methoxy-4-(methylsulfonyl)phenyl)-1H-pyrrolo[2,3-b]pyridine-4,6-diamine], the IC50 (in assay [1]; against human GST-CLK1 (129-end); against LRRK2 (G2019S)) was 301 to 1000 nM each time.

Take `CCCNc1cc(Nc2ccc(S(C)(=O)=O)cc2OC)nc2[nH]cc(Cl)c12` [Example 82, 3-chloro-N^6-(2-methoxy-4-(methylsulfonyl)phenyl)-N^4-propyl-1H-pyrrolo[2,3-b]pyridine-4,6-diamine]: the IC50 (in assay [1]; at human GST-CLK1 (129-end); on LRRK2 (G2019S)) was 301 to 1000 nM throughout.

As to `COc1cc(S(C)(=O)=O)ccc1Nc1cc(NC(C)C)c2c(Cl)c[nH]c2n1` [Example 83, 3-chloro-N^4-isopropyl-N^6-(2-methoxy-4-(methylsulfonyl)phenyl)-1H-pyrrolo[2,3-b]pyridine-4,6-diamine], the IC50 (in assay [1]; on human GST-CLK1 (129-end); against LRRK2 (G2019S)) was 301 to 1000 nM each time.

`COc1cc(S(C)(=O)=O)ccc1Nc1cc(NC2CC2)c2c(Cl)c[nH]c2n1` [Example 84, 3-chloro-N^4-cyclopropyl-N^6-(2-methoxy-4-(methylsulfonyl)phenyl)-1H-pyrrolo[2,3-b]pyridine-4,6-diamine]: the IC50 (in assay [1]; on human GST-CLK1 (129-end); at LRRK2 (G2019S)) was 301 to 1000 nM throughout.

For the compound `COc1cc(S(C)(=O)=O)ccc1Nc1cc(NCCS(C)(=O)=O)c2c(Cl)c[nH]c2n1` [Example 88, 3-chloro-N^6-(2-methoxy-4-(methylsulfonyl)phenyl)-N^4-(2-(methylsulfonyl)ethyl)-1H-pyrrolo[2,3-b]pyridine-4,6-diamine], the IC50 (in assay [1]; on human GST-CLK1 (129-end); against LRRK2 (G2019S)) was 301 to 1000 nM in each case.

As to `COc1cc(S(=O)(=O)N2CCC(N3CCOCC3)CC2)ccc1Nc1cc(NC2CCCC2)c2c(C#N)c[nH]c2n1` [Example 136, 4-(cyclopentylamino)-6-((2-methoxy-4-((4-morpholinopiperidin-1-yl)sulfonyl)phenyl)amino)-1H-pyrrolo[2,3-b]pyridine-3-carbonitrile], the IC50 in assay [1] was 301 to 1000 nM; against human GST-CLK1 (129-end) it was 301 to 1000 nM; on LRRK2 (G2019S) it was less than 100 nM.

In the case of `CCNc1cc(Nc2ccc(C(=O)N3OCC[C@@H]3c3cc(F)cc(F)c3)c3c2OCC3)nc2[nH]cc(C(F)(F)F)c12` [Example 245, (R)-(3-(3,5-difluorophenyl)isoxazolidin-2-yl)(7-((4-(ethylamino)-3-(trifluoromethyl)-1H-pyrrolo[2,3-b]pyridin-6-yl)amino)-2,3-dihydrobenzofuran-4-yl)methanone], the IC50 (in assay [1]; against human GST-CLK1 (129-end); against LRRK2 (G2019S)) was 301 to 1000 nM each time.

`CCNc1cc(Nc2ccc(C(=O)N3OCC[C@H]3c3cc(F)cc(F)c3)c3c2OCC3)nc2[nH]cc(C(F)(F)F)c12` [Example 246, (S)-(3-(3,5-difluorophenyl)isoxazolidin-2-yl)(7-((4-(ethylamino)-3-(trifluoromethyl)-1H-pyrrolo[2,3-b]pyridin-6-yl)amino)-2,3-dihydrobenzofuran-4-yl)methanone]: the IC50 (in assay [1]; at human GST-CLK1 (129-end); at LRRK2 (G2019S)) was 301 to 1000 nM in each case.
